Patent publication US20240285785A1, “TARGETING SORTILIN” (priority 2022, published 2024)

Assay: Murine serum stability assay
Type: in vitro ADME, mouse (CD-1)
Details: male, CD-1, mouse, mouse serum, male CD-1 mouse serum, 37° C.; read-out: Murine serum stability assay, T1/2
Procedure: Serum was drawn from male CD-1 mice by Pharmidex. Lyophilized peptides were solubilized in DMSO and then further diluted into male mouse (CD-1) serum at 37° C. in duplicates. The reaction was incubated at 37° C. and samples extracted at 6 time points: 0, 0.16, 0.5, 1, 3, and 6 hrs. Acetonitrile (ACN) with internal standard (tolbutamide) was added to stop the incubation. Samples were centrifuged, and the supernatant was analyzed by HPLC-MS/MS for the parent compound.
`CC(C)C[C@H](NC(=O)[C@H](C)NC(=O)[C@@H]1CCCN1C(=O)[C@H](CC(=O)O)NC(=O)[C@H](CCCNC(=N)N)NC(=O)[C@H](CC(C)C)NC(=O)[C@@H]1CCCN1C(=O)[C@H](C)NC(=O)[C@H](CC(=O)O)NC(=O)[C@H](Cc1c[nH]c2ccccc12)NC(=O)[C@H](CCCNC(=N)N)NC(=O)[C@@H]1CCCN1C(=O)[C@H](C)N)C(=O)N[C@@H](CCCNC(=N)N)C(=O)N[C@@H](CCC(N)=O)C(=O)N[C@@H](CC(C)C)C(=O)N[C@@H](CC(C)(C)C)C(=O)O` [Arb-SAR-J05] gave a half-life of 10.1 min.
Compound `CC(C)C[C@H](NC(=O)[C@H](CC(C)(C)C)NC(=O)[C@H](CCC(N)=O)NC(=O)[C@H](CCCNC(=N)N)NC(=O)[C@H](CC(C)C)NC(=O)[C@H](C)NC(=O)[C@@H]1CCCN1C(=O)[C@H](CC(=O)O)NC(=O)[C@H](CCCNC(=N)N)NC(=O)[C@H](CC(C)C)NC(=O)[C@@H]1CCCN1C(=O)[C@H](C)NC(=O)[C@H](CC(=O)O)NC(=O)[C@H](Cc1c[nH]c2ccccc12)NC(=O)[C@H](CCCNC(=N)N)NC(=O)[C@@H]1CCCN1C(=O)[C@H](C)N)C(=O)O` [Arb-SAR-J21] has a half-life of 11 min.
For `CC(C)CC[C@H](NC(=O)[C@H](CCCNC(=N)N)NC(=O)[C@H](CC(C)C)NC(=O)[C@H](C)NC(=O)[C@@H]1CCCN1C(=O)[C@H](CC(=O)O)NC(=O)[C@H](CCCNC(=N)N)NC(=O)[C@H](CC(C)C)NC(=O)[C@@H]1CCCN1C(=O)[C@H](C)NC(=O)[C@H](CC(=O)O)NC(=O)[C@H](Cc1c[nH]c2ccccc12)NC(=O)[C@H](CCCNC(=N)N)NC(=O)[C@@H]1CCCN1C(=O)[C@H](C)N)C(=O)N[C@@H](CC(C)C)C(=O)N[C@@H](CC(C)C)C(=O)O` [Arb-SAR-K01], the half-life was 13.8 min.
For `CC(C)C[C@H](NC(=O)[C@H](CC(C)C)NC(=O)[C@H](CCO)NC(=O)[C@H](CCCNC(=N)N)NC(=O)[C@H](CC(C)C)NC(=O)[C@H](C)NC(=O)[C@@H]1CCCN1C(=O)[C@H](CC(=O)O)NC(=O)[C@H](CCCNC(=N)N)NC(=O)[C@H](CC(C)C)NC(=O)[C@@H]1CCCN1C(=O)[C@H](C)NC(=O)[C@H](CC(=O)O)NC(=O)[C@H](Cc1c[nH]c2ccccc12)NC(=O)[C@H](CCCNC(=N)N)NC(=O)[C@@H]1CCCN1C(=O)[C@H](C)N)C(=O)O` [Arb-SAR-K3], the half-life was 11.2 min.
Work on `CC(C)CC[C@H](NC(=O)[C@H](CCC(C)C)NC(=O)[C@H](CCC(N)=O)NC(=O)[C@H](CCCNC(=N)N)NC(=O)[C@H](CC(C)C)NC(=O)[C@H](C)NC(=O)[C@@H]1CCCN1C(=O)[C@H](CC(=O)O)NC(=O)[C@H](CCCNC(=N)N)NC(=O)[C@H](CC(C)C)NC(=O)[C@@H]1CCCN1C(=O)[C@H](C)NC(=O)[C@H](CC(=O)O)NC(=O)[C@H](Cc1c[nH]c2ccccc12)NC(=O)[C@H](CCCNC(=N)N)NC(=O)[C@@H]1CCCN1C(=O)[C@H](C)N)C(=O)O` [Arb-SAR-N22] yielded a half-life of 16.7 min.
For `CC(C)C[C@H](NC(=O)[C@H](C)NC(=O)[C@@H]1CCCN1C(=O)[C@H](CC(=O)O)NC(=O)[C@H](CCCNC(=N)N)NC(=O)[C@H](CC(C)C)NC(=O)[C@@H]1CCCN1C(=O)[C@H](C)NC(=O)[C@H](CC(=O)O)NC(=O)[C@H](Cc1c[nH]c2ccccc12)NC(=O)[C@H](CCCNC(=N)N)NC(=O)[C@@H]1CCCN1C(=O)[C@H](C)N)C(=O)N[C@@H](CCCNC(=N)N)C(=O)N[C@@H](CCC(N)=O)C(=O)N[C@@H](Cc1ccccc1)C(=O)N[C@@H](CC(C)(C)C)C(=O)O` [Arb-SAR-P15], the half-life was 9.79 min.
Compound `CC(C)CC[C@H](NC(=O)[C@H](CCC(N)=O)NC(=O)[C@H](CCCNC(=N)N)NC(=O)[C@H](CC(C)C)NC(=O)[C@H](C)NC(=O)[C@@H]1CCCN1C(=O)[C@H](CC(=O)O)NC(=O)[C@H](CCCNC(=N)N)NC(=O)[C@H](CC(C)C)NC(=O)[C@@H]1CCCN1C(=O)[C@H](C)NC(=O)[C@H](CC(=O)O)NC(=O)[C@H](Cc1c[nH]c2ccccc12)NC(=O)[C@H](CCCNC(=N)N)NC(=O)[C@@H]1CCCN1C(=O)[C@H](C)N)C(=O)N[C@@H](CC(C)(C)C)C(=O)O` [Arb-SAR-P17] has a half-life of 12.8 min.
`CCCC[C@H](NC(=O)[C@H](CCC(N)=O)NC(=O)[C@H](CCCNC(=N)N)NC(=O)[C@H](CC(C)C)NC(=O)[C@H](C)NC(=O)[C@@H]1CCCN1C(=O)[C@H](CC(=O)O)NC(=O)[C@H](CCCNC(=N)N)NC(=O)[C@H](CC(C)C)NC(=O)[C@@H]1CCCN1C(=O)[C@H](C)NC(=O)[C@H](CC(=O)O)NC(=O)[C@H](Cc1c[nH]c2ccccc12)NC(=O)[C@H](CCCNC(=N)N)NC(=O)[C@@H]1CCCN1C(=O)[C@H](C)N)C(=O)N[C@@H](CC(C)(C)C)C(=O)O` [Arb-SAR-P19] showed a half-life of 11.8 min.
For `CC(C)C[C@H](NC(=O)[C@H](C)NC(=O)[C@@H]1CCCN1C(=O)[C@H](CC(=O)O)NC(=O)[C@H](CCCNC(=N)N)NC(=O)[C@H](CC(C)C)NC(=O)[C@@H]1CCCN1C(=O)[C@H](C)NC(=O)[C@H](CC(=O)O)NC(=O)[C@H](Cc1c[nH]c2ccccc12)NC(=O)[C@H](CCCNC(=N)N)NC(=O)[C@@H]1CCCN1C(=O)[C@H](C)N)C(=O)N[C@@H](CCCNC(=N)N)C(=O)N[C@@H](CCC(N)=O)C(=O)N[C@@H](CC1CC1)C(=O)N[C@@H](CC(C)(C)C)C(=O)O` [Arb-SAR-P21], the half-life was 9.33 min.
Work on `CC(C)C[C@H](NC(=O)[C@H](C)NC(=O)[C@@H]1CCCN1C(=O)[C@H](CC(=O)O)NC(=O)[C@H](CCCNC(=N)N)NC(=O)[C@H](CC(C)C)NC(=O)[C@@H]1CCCN1C(=O)[C@H](C)NC(=O)[C@H](CC(=O)O)NC(=O)[C@H](Cc1c[nH]c2ccccc12)NC(=O)[C@H](CCCNC(=N)N)NC(=O)[C@@H]1CCCN1C(=O)[C@H](C)N)C(=O)N[C@@H](CCCNC(=N)N)C(=O)N[C@@H](CCC(N)=O)C(=O)N[C@@H](CC(C)(C)C)C(=O)N[C@@H](CC(C)(C)C)C(=O)O` [Arb-SAR-P22] yielded a half-life of 9.96 min.
With `CC(C)C[C@H](NC(=O)[C@H](C)NC(=O)[C@@H]1CCCN1C(=O)[C@H](CC(=O)O)NC(=O)[C@H](CCCNC(=N)N)NC(=O)[C@H](CC(C)C)NC(=O)[C@@H]1CCCN1C(=O)[C@H](C)NC(=O)[C@H](CC(=O)O)NC(=O)[C@H](Cc1c[nH]c2ccccc12)NC(=O)[C@H](CCCNC(=N)N)NC(=O)[C@@H]1CCCN1C(=O)[C@H](C)N)C(=O)N[C@@H](CCCNC(=N)N)C(=O)N[C@@H](CCC(N)=O)C(=O)N[C@H](C(=O)N[C@@H](CC(C)(C)C)C(=O)O)C(C)(C)C` [Arb-SAR-P23] the half-life was 12.7 min.
`CC(C)C[C@H](NC(=O)[C@H](C)NC(=O)[C@@H]1CCCN1C(=O)[C@H](CC(=O)O)NC(=O)[C@H](CCCNC(=N)N)NC(=O)[C@H](CC(C)C)NC(=O)[C@@H]1CCCN1C(=O)[C@H](C)NC(=O)[C@H](CC(=O)O)NC(=O)[C@H](Cc1c[nH]c2ccccc12)NC(=O)[C@H](CCCNC(=N)N)NC(=O)[C@@H]1CCCN1C(=O)[C@H](C)N)C(=O)N[C@@H](CCCNC(=N)N)C(=O)N[C@@H](CCC(N)=O)C(=O)N[C@@H](CC1CCC1)C(=O)N[C@@H](CC(C)(C)C)C(=O)O` [Arb-SAR-P24] gave a half-life of 10.1 min.

Same assay, conditions: male, CD-1, mouse, serum, 37° C., read-out: Murine serum stability assay, T1/2
Compound `CC(C)C[C@H](NC(=O)[C@H](CC(C)C)NC(=O)[C@H](CCC(N)=O)NC(=O)[C@H](CCCNC(=N)N)NC(=O)[C@H](CC(C)C)NC(=O)[C@H](C)NC(=O)[C@@H]1CCCN1C(=O)[C@H](Cc1ccccc1)NC(=O)[C@H](CCCNC(=N)N)NC(=O)[C@H](CC(C)C)NC(=O)[C@@H]1CCCN1C(=O)[C@H](C)NC(=O)[C@H](CC(=O)O)NC(=O)[C@H](Cc1c[nH]c2ccccc12)NC(=O)[C@H](CCCNC(=N)N)NC(=O)[C@@H]1CCCN1C(=O)[C@H](C)N)C(=O)O` [Arb-SAR-C14] has a half-life of 7.91 min.
